Measurements taken from paper PMC12635197, “Discovery of first-in-class inhibitors of the TRF1:TIN2 protein:protein interaction by fragment screening” (Scientific Reports, 2025).
pKd: −log10 of the molar value.

Key:
[1] = LC-MS analysis of original compound DMSO stock; assay type: physicochemical; conditions: negative mode LC-MS
From the text: By measuring the R2 values of fragments with and without protein present in the sample, a strong indication of the extent of protein binding can be obtained. […] This increase in R2 was reversed upon addition of the TIN2TBM competitor. […] Nevertheless, given the strong binding activity of the fragment derivative 27 in the CPMG assay, a pure stock of 27 was synthesised and put forward for further characterisation using a quantitative LO-NMR assay to determine the dissociation constant.
Supplementary Figure 3: Negative mode LC-MS analysis of compound 25. The LC-UV
This value aligned with the molecular weight of compound 27 (251 g mol-1), conﬁrming that
(1 picture or pasted object on this page, not shown here)

TRF1TRFH = molecular target: TRF1TRFH; design: method as in PMID 18202258; conditions: ITC; read-out: dissociation constant of TIN2TBM for TRF1TRFH; cited from earlier work

CCOc1ccc(S(=O)(=O)n2ccnc2)c2ccccc12 [Compound 25]
stability in original screening DMSO stock [1]: degraded into compound 27

Ac-RHFNLAPLGRRRVQSQWASTR-CONH2 (Ac-RHFNLAPLGRRRVQSQWASTR-NH2) [TIN2TBM]
pKd (TRF1TRFH): 6.52
